Laboratory results taken from ChEMBL document CHEMBL5543109, “Novel β-Hairpin Antimicrobial Peptide Containing the β-Turn Sequence of -NG- and the Tryptophan Zippers Facilitate Self-Assembly into Nanofibers, Exhibiting Excellent Antimicrobial Performance” (J Med Chem, 2024).
≈ marks a conversion by molar mass, not a printed value. Calls of active or inactive are those of the source. The rule behind the calls is not given here.

What was measured:
[1] = system: Staphylococcus aureus; test: Antibacterial activity against Staphylococcus aureus incubated for 18 hrs by broth microdilution method; assay type: functional
[2] = system: Staphylococcus aureus; test: Synergistic antibacterial activity against methicillin resistant Staphylococcus aureus assessed as fractional inhibitory concentration index incubated for 18 hrs in presence of rifampin by checkerboard assay; assay type: functional
[3] = system: Staphylococcus aureus; test: Antibacterial activity against Staphylococcus aureus infected in BALB/c mouse systemic infection model assessed as reduction in kidney bacterial load at 5 to 10 mg/kg, ip measured after 8 hrs; assay type: functional, organism-based; conditions: dose 5-10 mg/kg
[4] = system: Staphylococcus aureus; test: Antibacterial activity against Staphylococcus aureus 794 infected in BALB/c mouse skin wound infection model assessed as reduction in wound area at 1 mg/ml, ip pre-infected with bacteria for 24 hrs followed by compound addition and measured on day 5; assay type: functional, organism-based; conditions: time 5.0 day
[5] = system: Staphylococcus aureus; test: Additive antibacterial activity against Staphylococcus aureus 794 assessed as fractional inhibitory concentration index incubated for 18 hrs in presence of gentamycin by checkerboard assay; assay type: functional
[6] = system: Pseudomonas aeruginosa; test: Antibacterial activity against Pseudomonas aeruginosa incubated for 18 hrs in presence of ZnCl2 by broth microdilution method; assay type: functional, organism-based
[7] = system: Escherichia coli; test: Antibacterial activity against Escherichia coli infected in BALB/c mouse systemic infection model assessed as reduction in kidney bacterial load at 5 to 10 mg/kg, ip measured after 24 hrs; assay type: functional, organism-based; conditions: dose 5-10 mg/kg
[8] = system: Staphylococcus aureus; test: Additive antibacterial activity against Staphylococcus aureus assessed as fractional inhibitory concentration index incubated for 18 hrs in presence of polymyxin B by checkerboard assay; assay type: functional
[9] = system: Escherichia coli; test: Synergistic antibacterial activity against kanamycin resistant Escherichia coli assessed as fractional inhibitory concentration index incubated for 18 hrs in presence of gentamycin by checkerboard assay; assay type: functional
[10] = system: Klebsiella pneumoniae; test: Bactericidal activity against Klebsiella pneumoniae at 2 times MIC within 90 mins; assay type: functional; conditions: 1.5 h
[11] = Acute toxicity in ip dosed mouse by karber method; assay type: organism-based; conditions: in vivo, read-out: LD50
[12] = system: Staphylococcus aureus; test: Additive antibacterial activity against Staphylococcus aureus 125 assessed as fractional inhibitory concentration index incubated for 18 hrs in presence of ciprofloxacin by checkerboard assay; assay type: functional
[13] = system: Cell membrane; test: Induction of outer membrane permeabilization in Escherichia coli within 1 min by NPN-dye based assay; assay type: cell membranes
[14] = system: Staphylococcus aureus; test: Induction of morphological change in Staphylococcus aureus assessed as bacterial collapse at 2 times MIC incubated for 30 mins by SEM analysis; assay type: functional, organism-based
[15] = system: Staphylococcus aureus; test: Additive antibacterial activity against Staphylococcus aureus 125 assessed as fractional inhibitory concentration index incubated for 18 hrs in presence of cefotaxime by checkerboard assay; assay type: functional
[16] = system: Staphylococcus aureus; test: Additive antibacterial activity against Staphylococcus aureus assessed as fractional inhibitory concentration index incubated for 18 hrs in presence of bacitracin by checkerboard assay; assay type: functional
[17] = system: Pseudomonas aeruginosa; test: Antibacterial activity against Pseudomonas aeruginosa incubated for 18 hrs in presence of FeCl3 by broth microdilution method; assay type: functional, organism-based
[18] = system: Staphylococcus aureus; test: Additive antibacterial activity against methicillin resistant Staphylococcus aureus 113 assessed as fractional inhibitory concentration index incubated for 18 hrs in presence of cefotaxime by checkerboard assay; assay type: functional
[19] = system: Cell membrane; test: Induction of cell membrane disruption in Escherichia coli assessed as PI uptake incubated for 2 hrs by PI staining based confocal laser scanning microscopy; assay type: cell membranes
[20] = Self-assembly property of compound in water assessed as beta-sheet formation by measuring particle size at 50 uM by […]; assay type: physicochemical; conditions: buffer
[21] = system: Staphylococcus aureus; test: Additive antibacterial activity against Staphylococcus aureus 125 assessed as fractional inhibitory concentration index incubated for 18 hrs in presence of streptomycin by checkerboard assay; assay type: functional
[22] = system: Escherichia coli; test: Antibacterial activity against kanamycin resistant Escherichia coli assessed as fractional inhibitory concentration index incubated for 18 hrs in presence of streptomycin by checkerboard assay; assay type: functional
[23] = Acute toxicity in mouse assessed as cell swelling at 230.5 mg/kg, ip by H and E staining based assay; assay type: organism-based; conditions: in vivo
[24] = system: Staphylococcus aureus; test: Additive antibacterial activity against methicillin resistant Staphylococcus aureus assessed as fractional inhibitory concentration index incubated for 18 hrs in presence of ciprofloxacin by checkerboard assay; assay type: functional
[25] = Toxicity in BALB/c mouse infected with Staphylococcus aureus 794 assessed as increase in number of sweat glands at 1 mg/ml, ip pre-infected with bacteria for 24 hrs followed by compound addition and measured after 13 days by H and E staining based histopathological analysis; assay type: organism-based; conditions: in vivo, 312 h, time 13 day
[26] = Acute toxicity in mouse assessed as renal cell necrosis at 230.5 mg/kg, ip by H and E staining based assay; assay type: organism-based; conditions: in vivo
[27] = system: Staphylococcus aureus; test: Antibacterial activity against Staphylococcus aureus infected in BALB/c mouse systemic infection model assessed as reduction in liver bacterial load at 5 to 10 mg/kg, ip measured after 8 hrs; assay type: functional, organism-based; conditions: dose 5-10 mg/kg
[28] = system: Cell membrane; test: Induction of outer membrane permeabilization in Escherichia coli at 4 times MIC measured immediately by NPN-dye based assay; assay type: cell membranes
[29] = system: Staphylococcus aureus; test: Induction of morphological change in Staphylococcus aureus assessed as bacterial lysis at 2 times MIC incubated for 30 mins by SEM analysis; assay type: functional, organism-based
[30] = system: Staphylococcus aureus; test: Bactericidal activity against Staphylococcus aureus ATCC 25923 incubated for 18 hrs by broth microdilution method; assay type: functional
[31] = system: Pseudomonas aeruginosa; test: Antibacterial activity against Pseudomonas aeruginosa incubated for 18 hrs in presence of NH4Cl by broth microdilution method; assay type: functional, organism-based
[32] = system: Staphylococcus aureus; test: Antibacterial activity against Staphylococcus aureus 794 infected in BALB/c mouse skin wound infection model assessed as reduction in wound area at 1 mg/ml, ip pre-infected with bacteria for 24 hrs followed by compound addition and measured on day 5 in presence of vancomycin; assay type: functional, organism-based; conditions: time 5.0 day
[33] = system: Staphylococcus aureus; test: Additive antibacterial activity against methicillin resistant Staphylococcus aureus 75 assessed as fractional inhibitory concentration index incubated for 18 hrs in presence of streptomycin by checkerboard assay; assay type: functional
[34] = system: Pseudomonas aeruginosa; test: Induction of morphological change in Pseudomonas aeruginosa assessed as bacterial swelling at 2 times MIC incubated for 30 mins by SEM analysis; assay type: functional, organism-based
[35] = system: Staphylococcus aureus; test: Antibacterial activity against Staphylococcus aureus incubated for 18 hrs in presence of FeCl3 by broth microdilution method; assay type: functional, organism-based
[36] = system: Cell membrane; test: Induction of cytoplasmic membrane depolarization in Staphylococcus aureus at 2 to 4 times MIC by DiSC3-5 dye based fluorescence method; assay type: cell membranes
[37] = system: Staphylococcus aureus; test: Synergistic antibacterial activity against kanamycin resistant Staphylococcus aureus assessed as fractional inhibitory concentration index incubated for 18 hrs in presence of rifampin by checkerboard assay; assay type: functional
[38] = system: Staphylococcus aureus; test: Synergistic antibacterial activity against methicillin resistant Staphylococcus aureus assessed as fractional inhibitory concentration index incubated for 18 hrs in presence of kanamycin by checkerboard assay; assay type: functional
[39] = system: Staphylococcus aureus; test: Antibacterial activity against Staphylococcus aureus 794 infected in BALB/c mouse skin wound infection model assessed as reduction in wound bacterial load at 1 mg/ml, ip administered at 1 hr interval for total 6 treatment and measured after 1 hr post last dose in presence of vancomycin; assay type: functional, organism-based; conditions: time 7.0 hrs
[40] = system: Staphylococcus aureus; test: Additive antibacterial activity against Staphylococcus aureus 794 assessed as fractional inhibitory concentration index incubated for 18 hrs in presence of streptomycin by checkerboard assay; assay type: functional
[41] = system: Escherichia coli; test: Additive antibacterial activity against Escherichia coli assessed as fractional inhibitory concentration index incubated for 18 hrs in presence of kanamycin by checkerboard assay; assay type: functional
[42] = system: Staphylococcus aureus; test: Additive antibacterial activity against Staphylococcus aureus 125 assessed as fractional inhibitory concentration index incubated for 18 hrs in presence of kanamycin by checkerboard assay; assay type: functional

**Q.** For `NCCCC[C@@H](NC(=O)[C@H](N)Cc1c[nH]c2ccccc12)C(=O)N[C@H](Cc1c[nH]c2ccccc12)C(=O)N[C@H](CCCCN)C(=O)N[C@H](Cc1c[nH]c2ccccc12)C(=O)N[C@@H](CC(N)=O)C(=O)NCC(=O)N[C@H](Cc1c[nH]c2ccccc12)C(=O)N[C@H](CCCCN)C(=O)N[C@H](Cc1c[nH]c2ccccc12)C(=O)N[C@H](CCCCN)C(=O)N[C@H](Cc1c[nH]c2ccccc12)C(N)=O`, which MIC [1] is on record?
**A.** Its MIC is 4 µM (≈ 7.27 µg/mL).

**Q.** What about the “fractional inhibitory concentration index (FICI)” value [2] of the same molecule?
**A.** Its value is 0.313.

**Q.** What about the Activity [3] of the same molecule?
**A.** The Activity was “Active”.

**Q.** What about the Activity [4] of the same molecule?
**A.** The Activity was “Active”.

**Q.** What about the “fractional inhibitory concentration index (FICI)” value [5] of the same molecule?
**A.** Its value is 0.563.

**Q.** What about the Activity [6] of the same molecule?
**A.** The Activity was “Active”.

**Q.** What about the Activity [7] of the same molecule?
**A.** The Activity was “Active”.

**Q.** What about the “fractional inhibitory concentration index (FICI)” value [8] of the same molecule?
**A.** The value was 1.

**Q.** And the “fractional inhibitory concentration index (FICI)” value [9]?
**A.** Its value is 0.188.

**Q.** What about the Activity [10] of the same molecule?
**A.** The Activity was 100%.

**Q.** And the LD50 [11]?
**A.** The LD50 was 230 mg/kg.

**Q.** What about the “fractional inhibitory concentration index (FICI)” value [12] of the same molecule?
**A.** Its value is 1.

**Q.** And the Activity [13]?
**A.** The Activity was “Dose-Dependent Effect”.

**Q.** What about the Activity [14] of the same molecule?
**A.** Its Activity is “Active”.

**Q.** And the “fractional inhibitory concentration index (FICI)” value [15]?
**A.** The value was 0.75.

**Q.** And the “fractional inhibitory concentration index (FICI)” value [16]?
**A.** The value was 0.563.

**Q.** And the Activity [17]?
**A.** The Activity was “Active”.

**Q.** What about the “fractional inhibitory concentration index (FICI)” value [18] of the same molecule?
**A.** Its value is 0.563.

**Q.** And the Activity [19]?
**A.** The Activity was “Dose-Dependent Effect”.

**Q.** What about the Activity [20] of the same molecule?
**A.** Its Activity is 126.5 nm.

**Q.** What about the “fractional inhibitory concentration index (FICI)” value [21] of the same molecule?
**A.** Its value is 1.

**Q.** And the “fractional inhibitory concentration index (FICI)” value [22]?
**A.** Its value is 0.188.

**Q.** What about the Activity [23] of the same molecule?
**A.** The Activity was “Toxic”.

**Q.** And the “fractional inhibitory concentration index (FICI)” value [24]?
**A.** Its value is 0.563.

**Q.** And the Activity [25]?
**A.** The Activity was “Toxic”.

**Q.** What about the Activity [26] of the same molecule?
**A.** Its Activity is “Toxic”.

**Q.** What about the Activity [27] of the same molecule?
**A.** The Activity was “Active”.

**Q.** What about the Activity [28] of the same molecule?
**A.** The Activity was 100%.

**Q.** And the Activity [29]?
**A.** Its Activity is “Active”.

**Q.** What about the MBC [30] of the same molecule?
**A.** The MBC was 8 µM (≈ 14.5 µg/mL).

**Q.** And the Activity [31]?
**A.** The Activity was “Active”.

**Q.** What about the Activity [32] of the same molecule?
**A.** Its Activity is “Active”.

**Q.** And the “fractional inhibitory concentration index (FICI)” value [33]?
**A.** Its value is 0.75.

**Q.** And the Activity [34]?
**A.** Its Activity is “Active”.

**Q.** What about the Activity [35] of the same molecule?
**A.** The Activity was “Active”.

**Q.** What about the Activity [36] of the same molecule?
**A.** The Activity was “Active”.

**Q.** What about the “fractional inhibitory concentration index (FICI)” value [37] of the same molecule?
**A.** The value was 0.313.

**Q.** And the “fractional inhibitory concentration index (FICI)” value [38]?
**A.** The value was 0.313.

**Q.** And the Activity [39]?
**A.** The Activity was “Active”.

**Q.** What about the “fractional inhibitory concentration index (FICI)” value [40] of the same molecule?
**A.** Its value is 0.625.

**Q.** And the “fractional inhibitory concentration index (FICI)” value [41]?
**A.** The value was 0.563.

**Q.** What about the “fractional inhibitory concentration index (FICI)” value [42] of the same molecule?
**A.** Its value is 0.563.
